Test results from US20030170702A1, “Methods for polysome distribution analysis of mRNA's” (priority 2002, published 2003).

Assays:
Taq polymerase = target: T1, Taq polymerase (Thermus aquaticus, UniProt P19821); assay: Inhibition of PCR by heparin and sucrose, SYBR Green quantitation of amplicon; format: biochemical; details: for concentration that inhibits PCR efficiency: final concentration in PCR reaction, 35 cycles
T1 construct: purchased Applied Biosystems Inc
Protocol: (§1) We discovered that heparin and sucrose inhibit reverse transcription (RT) and polymerase chain reaction (PCR). To determine the level of heparin or sucrose that inhibits these reactions, RT and PCR reactions were performed at varying heparin and sucrose concentrations. Each reaction mixture contained 25 μL 2× SYBR Green PCR Master Mix (Applied Biosystems Inc), 0.25 μL MultiScribe Reverse Transcriptase at 50U/μl (ABI), 0.4 μL RNase Inhibitor at 20U/μl (ABI), 25 nM forward primer, 25 nM reverse primer, 10 μl RNA template, and enough water to bring the final reaction volume to 50 μl. For the RT reactions, E coli RNase P RNA was used as the RNA template, and 1.25 μl of each primer from a stock solution of 1 μM was used, giving a final primer concentration of 25 nM. The RNase P primers were RNASEP-F19 (5′-[…]-3′, SEQ ID NO: 1) and RNASEP-R278 (5′-[…]-3′, SEQ ID NO: 2). All primers were purchased from Integrated DNA Technologies, Inc. The 2× SYBR Green Master Mix contains Taq polymerase, nucleotides, buffer, and magnesium. These reaction mixtures were assembled in a Micro Amp Optical 96 well reaction plate (ABI).
PCR reactions were also performed in the presence of varying amounts of heparin and sucrose. The plasmid pJA2′, which contains the DNA copy of the E coli RNase P RNA, was used as the template in these PCR reactions to generate both experimental and standard curves. Thirty-five cycles of PCR were performed in which the reaction mixture was incubated at 95° C. for 15 seconds for denaturation and 60° C. for one minute for annealing and extension. The reaction mixtures in the 96 well plate were loaded in the Gene Amp 5700 Sequence Detection System (ABI). This machine quantitates the amount of PCR product made after each cycle. A standard curve is generated with each reaction and used to calculate the quantity of the PCR product or amplicon for each experimental reaction. For the “Raw Activity” column in Table 2 the units are ng of DNA.

[1] = target: T2, MultiScribe Reverse Transcriptase (Moloney murine leukemia virus, UniProt P03355); assay: Inhibition of reverse transcription (RT) by heparin and sucrose, 32P-labeled primer extension; format: biochemical
T2 construct: MultiScribe Reverse Transcriptase; purchased ABI (Applied Biosystems Inc)
Protocol: as §1
To examine the reverse transcription efficiency in the presence of sucrose and heparin, the reverse primer specific for RNase P RNA was ^32P labeled, and used as the only source of reverse primer. The radiolabeled primer was extended using reverse transcription during an incubation at 48° C. for 30 minutes. The resultant DNA was isolated and separated on a 6% denaturing gel. After soaking and drying the gel, the ^32P labeled reverse transcription product was quantitated using the Cyclone Storage Phosphor System (Packard) and Optiquant Image Analysis Software (Packard). This software reports the intensity of a selected band on the gel in units called Digital Light Units (DLU). The number of DLUs is listed in the “Raw Activity” column in Table 1. The amounts of sucrose and heparin in the samples as well as the final concentration of sucrose (percent weight per volume, % w/v) and heparin in the RT reaction are also listed. The highest amount represents 30% sucrose (average of the amount in a typical sucrose gradient) and 1 mg/mL heparin (amount of heparin in a typical sucrose gradient fraction). The amount of reverse transcription activity (“% RT” column) is expressed as a percent of the activity in the presence of differing amounts of sucrose or heparin relative to the activity in the absence of these substances.

[2] = sucrose 0.001 % w/v final in PCR reaction (0.04 % in sample)
[3] = sucrose 0.004 % w/v final in PCR reaction (0.12 % in sample)
[4] = sucrose 0.014 % w/v final in PCR reaction (0.37 % in sample)
[5] = sucrose 0.044 % w/v final in PCR reaction (1.11 % in sample)
[6] = sucrose 0.133 % w/v final in PCR reaction (3.33 % in sample)
[7] = sucrose 0.4 % w/v final in PCR reaction (10 % in sample)
[8] = sucrose 1.2 % w/v final in PCR reaction (30 % in sample)
[9] = sucrose 0.001 % W/V final in RT reaction (0.04 % in sample)
[10] = sucrose 0.004 % W/V final in RT reaction (0.12 % in sample)
[11] = sucrose 0.014 % W/V final in RT reaction (0.37 % in sample)
[12] = sucrose 0.044 % W/V final in RT reaction (1.11 % in sample)
[13] = sucrose 0.133 % W/V final in RT reaction (3.33 % in sample)
[14] = sucrose 0.4 % W/V final in RT reaction (10 % in sample)
[15] = sucrose 1.2 % W/V final in RT reaction (30 % in sample)
[16] = heparin 0.002 ng/μL final in PCR reaction (0.06 in sample)
[17] = heparin 0.012 ng/μL final in PCR reaction (0.32 in sample)
[18] = heparin 0.064 ng/μL final in PCR reaction (1.6 in sample)
[19] = heparin 0.32 ng/μL final in PCR reaction (8 in sample)
[20] = heparin 1.6 ng/μL final in PCR reaction (40 in sample)
[21] = heparin 8 ng/μL final in PCR reaction (200 in sample)
[22] = heparin 40 ng/μL final in PCR reaction (1000 in sample)
[23] = heparin 0.002 ng/μL final in RT reaction (0.06 in sample)
[24] = heparin 0.012 ng/μL final in RT reaction (0.32 in sample)
[25] = heparin 0.064 ng/μL final in RT reaction (1.6 in sample)
[26] = heparin 0.32 ng/μL final in RT reaction (8 in sample)
[27] = heparin 1.6 ng/μL final in RT reaction (40 in sample)
[28] = heparin 8 ng/μL final in RT reaction (200 in sample)
[29] = heparin 40 ng/μL final in RT reaction (1000 in sample)

T1 sequence (P19821 whole entry): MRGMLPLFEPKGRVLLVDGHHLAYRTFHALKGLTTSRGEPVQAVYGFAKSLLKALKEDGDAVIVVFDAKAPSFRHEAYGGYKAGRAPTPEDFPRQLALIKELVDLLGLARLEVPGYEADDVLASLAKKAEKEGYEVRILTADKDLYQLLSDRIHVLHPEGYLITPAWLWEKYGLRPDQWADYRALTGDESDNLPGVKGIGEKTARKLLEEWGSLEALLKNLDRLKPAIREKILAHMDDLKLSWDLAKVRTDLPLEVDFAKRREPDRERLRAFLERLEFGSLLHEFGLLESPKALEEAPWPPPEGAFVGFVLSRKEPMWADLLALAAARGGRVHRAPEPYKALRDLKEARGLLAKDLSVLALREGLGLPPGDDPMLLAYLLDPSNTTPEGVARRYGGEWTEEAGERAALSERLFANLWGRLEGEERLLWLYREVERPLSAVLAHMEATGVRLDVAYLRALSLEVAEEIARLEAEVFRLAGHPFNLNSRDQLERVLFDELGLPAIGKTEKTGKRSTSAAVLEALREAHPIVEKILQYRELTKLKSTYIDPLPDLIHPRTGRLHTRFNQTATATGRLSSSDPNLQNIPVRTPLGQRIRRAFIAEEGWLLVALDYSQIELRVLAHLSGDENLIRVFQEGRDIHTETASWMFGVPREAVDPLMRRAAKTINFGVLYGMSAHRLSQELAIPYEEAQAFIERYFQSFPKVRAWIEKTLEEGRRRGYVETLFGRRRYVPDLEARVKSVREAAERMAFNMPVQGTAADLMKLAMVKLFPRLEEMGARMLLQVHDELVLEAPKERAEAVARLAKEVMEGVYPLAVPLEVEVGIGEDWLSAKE

## OC[C@H]1O[C@@](CO)(O[C@H]2O[C@H](CO)[C@@H](O)[C@H](O)[C@H]2O)[C@@H](O)[C@@H]1O [Sucrose, sucrose]
Taq polymerase
  concentration that inhibits PCR efficiency: 0.004 % w/v
Taq polymerase; [2]
  % PCR: 102%
  Raw Activity (quantity of PCR product): 10.2 ng of DNA
Taq polymerase; [3]
  % PCR: 66.6%
  Raw Activity (quantity of PCR product): 6.66 ng of DNA
Taq polymerase; [4]
  % PCR: 67%
  Raw Activity (quantity of PCR product): 6.7 ng of DNA
Taq polymerase; [5]
  % PCR: 61%
  Raw Activity (quantity of PCR product): 6.1 ng of DNA
Taq polymerase; [6]
  % PCR: 65.7%
  Raw Activity (quantity of PCR product): 6.57 ng of DNA
Taq polymerase; [7]
  % PCR: 66.7%
  Raw Activity (quantity of PCR product): 6.67 ng of DNA
Taq polymerase; [8]
  % PCR: 72.6%
  Raw Activity (quantity of PCR product): 7.26 ng of DNA
[1]; [9]
  % RT (reverse transcription activity relative to activity in absence of substance): 133.445%
  Raw Activity (RT product band intensity): 7.94 DLU
[1]; [10]
  % RT (reverse transcription activity relative to activity in absence of substance): 158.487%
  Raw Activity (RT product band intensity): 9.43 DLU
[1]; [11]
  % RT (reverse transcription activity relative to activity in absence of substance): 171.933%
  Raw Activity (RT product band intensity): 10.23 DLU
[1]; [12]
  % RT (reverse transcription activity relative to activity in absence of substance): 159.832%
  Raw Activity (RT product band intensity): 9.51 DLU
[1]; [13]
  % RT (reverse transcription activity relative to activity in absence of substance): 155.798%
  Raw Activity (RT product band intensity): 9.27 DLU
[1]; [14]
  % RT (reverse transcription activity relative to activity in absence of substance): 119.328%
  Raw Activity (RT product band intensity): 7.1 DLU
[1]; [15]
  % RT (reverse transcription activity relative to activity in absence of substance): 96.1345%
  Raw Activity (RT product band intensity): 5.72 DLU
[1]; up to 1.2 % W/V sucrose final, 48° C. for 30 minutes
  effect on the efficiency of reverse transcription: does not inhibit

## heparin
Taq polymerase
  concentration that inhibits PCR efficiency: 0.012 ng/µL
Taq polymerase; [16]
  % PCR: 107.69%
  Raw Activity (quantity of PCR product): 0.002 11.2 ng of DNA
Taq polymerase; [17]
  % PCR: 75.962%
  Raw Activity (quantity of PCR product): 7.9 ng of DNA
Taq polymerase; [18]
  % PCR: 29.808%
  Raw Activity (quantity of PCR product): 3.1 ng of DNA
Taq polymerase; [19]
  % PCR: 0%
  Raw Activity (quantity of PCR product): 0 ng of DNA
Taq polymerase; [20]
  % PCR: 0%
  Raw Activity (quantity of PCR product): 0 ng of DNA
Taq polymerase; [21]
  % PCR: 0%
  Raw Activity (quantity of PCR product): 0 ng of DNA
Taq polymerase; [22]
  % PCR: 0%
  Raw Activity (quantity of PCR product): 0 ng of DNA
[1]; final concentration in RT reaction
  concentration that significantly inhibits reverse transcription efficiency: ≥ 0.32 ng/µL
[1]; [23]
  % RT (reverse transcription activity relative to activity in absence of substance): 108.01%
  Raw Activity (RT product band intensity): 10.79 DLU
[1]; [24]
  % RT (reverse transcription activity relative to activity in absence of substance): 101.8%
  Raw Activity (RT product band intensity): 10.17 DLU
[1]; [25]
  % RT (reverse transcription activity relative to activity in absence of substance): 93.293%
  Raw Activity (RT product band intensity): 9.32 DLU
[1]; [26]
  % RT (reverse transcription activity relative to activity in absence of substance): 72.573%
  Raw Activity (RT product band intensity): 7.25 DLU
[1]; [27]
  % RT (reverse transcription activity relative to activity in absence of substance): 3.6036%
  Raw Activity (RT product band intensity): 0.36 DLU
[1]; [28]
  % RT (reverse transcription activity relative to activity in absence of substance): 0.6006%
  Raw Activity (RT product band intensity): 0.06 DLU
[1]; [29]
  % RT (reverse transcription activity relative to activity in absence of substance): 0.8008%
  Raw Activity (RT product band intensity): 0.08 DLU
